Test results from the NIST ThermoML archive (doi:10.1016/j.jct.2010.12.028).

Columns and labels:
[1] = xn = mol fraction of the nth substance listed; settings: 101 kPa, Liquid; for speed of sound: Sing-around technique in a fixed-path interferometer; for mass density: Vibrating tube method
[2] = excess molar enthalpy (molar enthalpy of mixing); xn = mol fraction of the nth substance listed; settings: 308.15 K, 101 kPa, Liquid, two-drop calorimeter

Cc1ccccc1N [2-methylaniline] + c1ccncc1
[1]
Settings | mass density, 298.15 K [kg/m3] | mass density, 303.15 K [kg/m3] | mass density, 308.15 K [kg/m3] | speed of sound, 298.15 K [m/s] | speed of sound, 303.15 K [m/s] | speed of sound, 308.15 K [m/s]
x1 = 0.0652 | 980.854 | 975.904 | 970.897 | 1431.7 | 1411.5 | 1391.8
x1 = 0.1138 | 982.607 | 977.714 | 972.767 | 1442.1 | 1421.8 | 1402.4
x1 = 0.1277 | – | 978.889 | – | – | – | –
x1 = 0.1477 | 983.731 | – | 973.991 | 1449.2 | 1429 | 1409.8
x1 = 0.1853 | 984.895 | 980.111 | 975.253 | 1457 | 1436.9 | 1417.8
x1 = 0.2374 | 986.375 | 981.65 | 976.858 | 1467.7 | 1447.7 | 1428.6
x1 = 0.2686 | 987.172 | 982.485 | 977.748 | 1474 | 1454 | 1435
x1 = 0.3005 | 987.937 | 983.289 | 978.587 | 1480.3 | 1460.4 | 1441.4
x1 = 0.3526 | 989.058 | 984.461 | 979.835 | 1490.5 | 1470.6 | 1451.7
x1 = 0.4104 | 990.119 | 985.592 | 981.051 | 1501.4 | 1481.7 | 1462.7
x1 = 0.4837 | 991.237 | 986.789 | 982.322 | 1514.8 | 1495.3 | 1476.3
x1 = 0.5238 | 991.751 | 987.335 | 982.917 | 1522 | 1502.6 | 1483.6
x1 = 0.5641 | 992.187 | 987.803 | 983.434 | 1529.1 | 1509.6 | 1490.6
x1 = 0.6231 | 992.73 | 988.386 | 984.067 | 1539.3 | 1519.7 | 1500.7
x1 = 0.6974 | 993.253 | 988.955 | 984.698 | 1551.7 | 1531.8 | 1513.1
x1 = 0.7678 | 993.622 | 989.362 | 985.142 | 1563.4 | 1542.9 | 1524.3
x1 = 0.8236 | 993.838 | 989.613 | 985.416 | 1572.5 | 1551.6 | 1532.9
x1 = 0.8622 | 993.969 | 989.756 | 985.573 | 1578.9 | 1557.4 | 1538.6
x1 = 0.9621 | 994.245 | 990.097 | 985.933 | 1595.9 | 1572.2 | 1553.2

[2]
Settings | excess molar enthalpy [kcal/mol]
x1 = 0.0397 | -0.052
x1 = 0.0728 | -0.0894
x1 = 0.1263 | -0.137
x1 = 0.1742 | -0.171
x1 = 0.2163 | -0.192
x1 = 0.2681 | -0.213
x1 = 0.3192 | -0.23
x1 = 0.3707 | -0.24
x1 = 0.4212 | -0.245
x1 = 0.4826 | -0.247
x1 = 0.5261 | -0.245
x1 = 0.5815 | -0.241
x1 = 0.6327 | -0.23
x1 = 0.7026 | -0.213
x1 = 0.7735 | -0.187
x1 = 0.8177 | -0.165
x1 = 0.8802 | -0.123
x1 = 0.9723 | -0.0346
